# Test results reported in patent US20210186982A1, “METHODS AND COMPOSITIONS FOR TREATING MELANOMA” (UNIVERSITE NICE SOPHIA ANTIPOLIS, priority 2017, published 2021).
# Experiments:
# [1] = system: A375; experiment: MTS conversion assay, melanoma cell proliferation; assay type: cell-based, human; settings: 24 h; increasing doses up to 10 μM
# Experimental: Cell proliferation was measured by a MTS conversion assay using the CellTiter 96® Aqueous Non-Radioactive Cell Proliferation kit (Promega, Madison Wis.) according to the manufacturer instructions. Cells were seeded in 96-well plates (5×10^4 cells/well) and treated with different reagents for the indicated times and incubated at 37° C. with MTS reagent. The optical density of each sample at 490 nm was determined with a Multiskan FC plate reader (Thermo Fisher Scientific, Waltham, Mass. USA).
# [2] = system: melanoma cell cultures; experiment: Cytotoxicity of b-AP15 in presence of NAC or pan-caspase inhibitor; assay type: cell-based, human; settings: co-incubation with b-AP15
# [3] = system: A375 cells; experiment: ROS production (CM-H2DCFDA, flow cytometry); assay type: cell-based, human; settings: 5 mM NAC with 2 μM b-AP15
# Experimental: ROS levels were measured using the redox-sensitive dye CM-H2DCFDA (Thermo Fischer Scientific). After treatment, cells were stained with 10 μM CM-H2DCFDA in PBS for 30 min at 37° C. Cells were washed with PBS and resuspended in PBS 5 mM EDTA/1% BSA. ROS production was analysed using a MACSQuant® Analyzer 10 cytometer (Miltenyi Biotech).
# [4] = target: T1, UCHL5 (Homo sapiens, UniProt Q9Y5K5); experiment: DUB trap assay (HA-Ub-VS probe, anti-UCHL5 immunoblot); assay type: cell-based
# T1 construct: 20 μg of protein extracts were incubated for 25 min at 37° C. with 2 μM HA-Ub-VS; endogenous in cells; host or cells: A375 melanoma cells; cell lysates
# T1 sequence (Q9Y5K5 whole entry): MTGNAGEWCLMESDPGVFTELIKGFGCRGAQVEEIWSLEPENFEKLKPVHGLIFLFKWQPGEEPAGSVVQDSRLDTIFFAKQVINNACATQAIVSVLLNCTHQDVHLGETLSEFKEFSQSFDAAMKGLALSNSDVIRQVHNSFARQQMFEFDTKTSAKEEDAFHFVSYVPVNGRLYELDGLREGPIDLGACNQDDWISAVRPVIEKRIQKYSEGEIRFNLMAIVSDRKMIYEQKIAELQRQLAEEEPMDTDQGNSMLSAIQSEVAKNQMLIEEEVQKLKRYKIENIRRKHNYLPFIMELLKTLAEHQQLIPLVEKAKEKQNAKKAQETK
# Experimental: (§1) Cells were harvested, washed with PBS and pellets were dried then freezed (−80° C.) and subsequently lysed in ice-cold buffer containing 50 mM Tris (pH 7.4), 5 mM MgCl2, 250 mM sucrose, 1 mM DTT, 2 mM ATP, and 1 mM PMSF and mild sonication. Lysates were cleared by centrifugation, and 20 μg of protein extracts were incubated for 25 min at 37° C. with 2 μM HA-Ub-VS (Boston Biochem, Cambridge, Mass.). After boiling in reducing sample buffer, labelled cell lysates were subjected to immunoblot analysis as described above using the indicated antibodies.
# [5] = target: T2, USP14 (Homo sapiens, UniProt P54578); experiment: DUB trap assay (HA-Ub-VS probe, anti-USP14 immunoblot); assay type: cell-based; settings: A375 melanoma cells
# T2 construct: endogenous in cells; host or cells: A375 (also 1205Lu, 501Mel, SKMel28, 451Lu) melanoma cells; cell lysates
# T2 sequence (P54578 whole entry): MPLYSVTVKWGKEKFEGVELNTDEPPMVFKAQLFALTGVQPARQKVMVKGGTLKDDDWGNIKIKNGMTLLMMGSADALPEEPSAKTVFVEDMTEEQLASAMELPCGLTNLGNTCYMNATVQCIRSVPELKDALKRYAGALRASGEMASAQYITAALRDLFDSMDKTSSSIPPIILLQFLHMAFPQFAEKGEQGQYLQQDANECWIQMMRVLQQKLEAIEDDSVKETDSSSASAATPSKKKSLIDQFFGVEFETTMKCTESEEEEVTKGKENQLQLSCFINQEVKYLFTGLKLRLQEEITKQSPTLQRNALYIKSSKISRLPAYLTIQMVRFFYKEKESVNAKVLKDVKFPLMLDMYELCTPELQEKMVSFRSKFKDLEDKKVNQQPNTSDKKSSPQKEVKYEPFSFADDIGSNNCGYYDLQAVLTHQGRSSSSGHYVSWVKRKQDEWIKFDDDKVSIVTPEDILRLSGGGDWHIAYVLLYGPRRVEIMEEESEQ
# Experimental: as §1
# [6] = system: A375 and Me1501 cells; experiment: Cytotoxicity, cytotox green reagent (IncuCyte); assay type: cell-based, human; settings: 72 h; compared with b-AP15
# Experimental: FIG. 8. USP14 inhibition induces growth inhibition and cytotoxicity on melanoma cell lines. (A) Growth curve of A375 treated with 2 μM b-AP15, 2 μM VLX1570 or […] bortezomib (BTZ). Data were acquired in triplicate during 3 days using an IncuCyte Zoom. (B) and (C) Cytotoxic effects of USP14 inhibition on melanoma cells. A375 and Me1501 cells were treated with the indicated doses of b-AP15 or VLX1570, and stained with cytotox green reagent (100 nM). Cytotoxicity was monitored in triplicate for 72 h with an IncuCyte imaging system.
# [7] = Annexin-V-FITC/7-AAD flow cytometry, cell viability; assay type: cell-based; settings: human, A375 cells; solvent 87%
# Experimental: Cell death was evaluated by flow cytometry following staining with Annexin-V-FITC and 7-AAD (eBiosciences) as previously described 24.
structure (smiles),measurement,setting,value
N#Cc1nc2c(nc1C#N)-c1ccc(Cl)cc1C2=O [HBX41108],cell proliferation of A375 cells (MTS),[1],drastically decreased cell proliferation
"CC(=O)N[C@@H](CS)C(=O)O [NAC, N-acetyl-L-cysteine]",effect on cytotoxicity of b-AP15,[2],blocked
same,effect on b-AP15-triggered burst of ROS,[3],inhibited
CC(C)[C@H](NC(=O)c1ccc2ccccc2n1)C(=O)N[C@@H](CC(=O)O)C(=O)COc1c(F)cccc1F [QVD-OPh],effect on cytotoxicity of b-AP15,[2],did not prevent the cytotoxic action of b-AP15
C=CC(=O)N1CC/C(=C\c2ccc(F)c([N+](=O)[O-])c2)C(=O)/C(=C/c2ccc(F)c([N+](=O)[O-])c2)C1 [VLX1570],UCHL5 activity (UCHL5-Ub-HA) in A375 cells,[4],not UCHL5
same,USP14 activity (USP14-Ub-HA) in A375 cells,[5],blocked USP14
same,melanoma cell death,[6],induced to similar levels
CCC[C@H](NC(=O)/C(C#N)=C/c1cccc(Br)n1)c1ccccc1 [WP1130],cell proliferation of A375 cells (MTS),[1],drastically decreased cell proliferation
CN[C@@H]1C[C@H]2O[C@@](C)([C@@H]1OC)n1c3ccccc3c3c4c(c5c6ccccc6n2c5c31)C(=O)NC4 [staurosporine],viability,[7],56%
